Laboratory results taken from ChEMBL document CHEMBL1201862, “PubChem BioAssay data set” (2004).
The source made the active and inactive calls.

How the values were obtained:
[1] = target: Cytochrome P450 2D6 (Homo sapiens, UniProt P10635); assay: qHTS Assay for Inhibitors and Substrates of Cytochrome P450 2D6. [Related pubchem assays: 410 ]; assay type: ADME; details: read-out: Potency
[2] = target: Glutathione-S-transferase (Schistosoma japonicum, UniProt Q26513); assay: biotin-GST/anti-GST TR-FRET signal inhibitors, dose response, artefact control for Vif-APOBEC3G degradation inhibitor project, biochemical (AID 1117362); assay type: functional
Chain of Glutathione-S-transferase (Q26513 whole entry): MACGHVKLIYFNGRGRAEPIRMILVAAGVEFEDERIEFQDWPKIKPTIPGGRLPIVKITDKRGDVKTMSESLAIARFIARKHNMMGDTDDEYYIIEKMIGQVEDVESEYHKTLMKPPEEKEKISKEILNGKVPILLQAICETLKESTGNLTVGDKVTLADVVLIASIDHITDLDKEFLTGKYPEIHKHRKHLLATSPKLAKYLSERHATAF

[3] = target: Likely tRNA 2'-phosphotransferase (Candida albicans (strain SC5314 / ATCC MYA-2876) (Yeast), UniProt Q5A7N4); assay: TPT1 tRNA phosphotransferase inhibitors, dose response, biochemical, fluorescence polarization (AID 2160)
Chain of Likely tRNA 2'-phosphotransferase (Q5A7N4 whole entry): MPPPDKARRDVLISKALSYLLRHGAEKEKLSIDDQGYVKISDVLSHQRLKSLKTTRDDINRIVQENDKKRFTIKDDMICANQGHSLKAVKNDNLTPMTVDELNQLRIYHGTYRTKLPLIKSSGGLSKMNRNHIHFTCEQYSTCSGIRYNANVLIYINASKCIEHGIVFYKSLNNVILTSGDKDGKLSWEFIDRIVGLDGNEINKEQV

[4] = THP-1 cell cytotoxicity, dose response, cytotoxicity control for Vif-APOBEC3G degradation inhibitor project, THP-1 cells (AID 1117359); assay type: functional; details: Human immunodeficiency virus 1, THP-1
[5] = target: Guanyl-specific ribonuclease T1 (Aspergillus oryzae (strain ATCC 42149 / RIB 40), UniProt P00651); assay: RNase T1 inhibitors, dose response, counter-screen for TPT1 inhibitor project, biochemical, fluorescence polarization, 1536-well (AID 2167)
Chain of Guanyl-specific ribonuclease T1 (P00651 whole entry): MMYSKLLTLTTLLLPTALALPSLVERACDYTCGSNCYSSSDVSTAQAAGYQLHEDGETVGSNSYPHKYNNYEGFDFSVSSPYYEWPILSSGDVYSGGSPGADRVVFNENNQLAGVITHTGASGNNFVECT

[6] = target: Lysosomal acid glucosylceramidase (Homo sapiens, UniProt P04062); assay: Dose response cell-based high throughput screening assay to identify enhancers of beta-glucosidase activity. [Related pubchem assays: 784 ]; assay type: functional
Chain of Lysosomal acid glucosylceramidase (P04062 whole entry): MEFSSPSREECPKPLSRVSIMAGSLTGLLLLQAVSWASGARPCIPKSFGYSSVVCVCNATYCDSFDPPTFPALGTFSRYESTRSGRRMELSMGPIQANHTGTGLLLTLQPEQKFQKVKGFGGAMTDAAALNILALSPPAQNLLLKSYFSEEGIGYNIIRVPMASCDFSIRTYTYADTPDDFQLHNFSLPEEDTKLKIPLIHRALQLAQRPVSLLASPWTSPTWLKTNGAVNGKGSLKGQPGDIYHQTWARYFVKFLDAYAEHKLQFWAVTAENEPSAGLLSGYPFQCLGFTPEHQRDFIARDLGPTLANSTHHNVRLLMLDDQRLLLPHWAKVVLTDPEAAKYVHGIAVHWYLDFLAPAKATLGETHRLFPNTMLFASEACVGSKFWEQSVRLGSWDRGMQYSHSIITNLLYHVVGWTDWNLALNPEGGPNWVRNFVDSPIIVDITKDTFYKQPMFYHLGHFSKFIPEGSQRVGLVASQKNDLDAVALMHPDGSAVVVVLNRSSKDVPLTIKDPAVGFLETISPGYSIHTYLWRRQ

[7] = target: Acyl-homoserine lactone acylase PvdQ (Pseudomonas aeruginosa (strain LESB58), UniProt Q9I194); assay: P. aeruginosa PvdQ acylase inhibitors, dose response, biochemical, fluorescence, plate reader and imaging, cherry-picks (AID 493231)
Chain of Acyl-homoserine lactone acylase PvdQ (Q9I194 24-193 limits assumed): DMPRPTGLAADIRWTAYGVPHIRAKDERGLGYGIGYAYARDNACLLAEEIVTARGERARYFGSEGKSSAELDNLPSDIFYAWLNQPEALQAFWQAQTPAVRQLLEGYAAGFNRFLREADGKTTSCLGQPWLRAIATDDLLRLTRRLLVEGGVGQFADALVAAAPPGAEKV
Chain of Acyl-homoserine lactone acylase PvdQ (Q9I194 217-762 limits assumed): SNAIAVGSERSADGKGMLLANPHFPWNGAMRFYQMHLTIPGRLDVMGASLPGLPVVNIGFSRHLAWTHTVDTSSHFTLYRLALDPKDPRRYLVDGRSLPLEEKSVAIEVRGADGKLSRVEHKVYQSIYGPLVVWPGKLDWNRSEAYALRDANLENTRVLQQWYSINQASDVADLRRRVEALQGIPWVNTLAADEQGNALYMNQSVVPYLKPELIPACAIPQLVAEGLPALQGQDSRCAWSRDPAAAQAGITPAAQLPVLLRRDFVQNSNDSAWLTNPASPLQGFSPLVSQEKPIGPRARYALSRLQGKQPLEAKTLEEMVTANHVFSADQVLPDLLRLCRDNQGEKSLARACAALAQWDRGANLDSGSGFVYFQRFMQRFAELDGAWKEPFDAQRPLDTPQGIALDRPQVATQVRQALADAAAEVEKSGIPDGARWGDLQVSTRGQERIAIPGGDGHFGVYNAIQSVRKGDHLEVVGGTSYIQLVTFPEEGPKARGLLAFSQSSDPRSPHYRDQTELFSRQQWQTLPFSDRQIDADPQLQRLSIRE

[8] = target: T1, Protein skinhead-1 (Caenorhabditis elegans, UniProt P34707); assay type: functional
T1 sequence (P34707 whole entry): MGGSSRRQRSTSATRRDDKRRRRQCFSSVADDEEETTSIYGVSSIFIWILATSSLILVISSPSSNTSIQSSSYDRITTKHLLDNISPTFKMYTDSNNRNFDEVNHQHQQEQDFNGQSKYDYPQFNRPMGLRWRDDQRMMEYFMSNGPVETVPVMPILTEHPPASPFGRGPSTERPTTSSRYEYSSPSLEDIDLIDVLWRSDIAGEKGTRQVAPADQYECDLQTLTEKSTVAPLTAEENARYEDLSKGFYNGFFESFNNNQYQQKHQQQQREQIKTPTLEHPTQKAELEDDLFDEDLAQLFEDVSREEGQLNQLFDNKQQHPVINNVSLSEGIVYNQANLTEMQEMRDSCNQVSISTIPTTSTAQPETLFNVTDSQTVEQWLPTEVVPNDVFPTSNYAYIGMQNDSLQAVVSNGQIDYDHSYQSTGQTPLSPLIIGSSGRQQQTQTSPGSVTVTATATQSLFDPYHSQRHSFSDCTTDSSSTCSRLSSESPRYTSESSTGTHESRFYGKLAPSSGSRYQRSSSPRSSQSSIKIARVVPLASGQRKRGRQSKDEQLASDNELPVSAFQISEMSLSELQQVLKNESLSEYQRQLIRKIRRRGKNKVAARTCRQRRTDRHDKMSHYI

[9] = growth suppression of PTEN-null colon cells, dose response, cell-based, HCT116 PTEN knockout (AID 1047); assay type: functional;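 further: HCT116 colon tumor cells with PTEN knocked out; cells exposed to compound for 60 hours before readout; potency for loss of cell viability measured by luminescence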
[10] = NIH-3T3 fibroblast cytotoxicity, dose response, cytotoxicity control, cell-based, fluorescence, Alamar Blue, secondary assay (AID 2327); assay type: functional;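 further: NIH-3T3 mouse fibroblasts cultured with fluconazole at 8 µg/mL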
[11] = target: T2, Bcl-2-related protein A1 (Mus musculus, UniProt Q07440); assay type: functional;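 further: confirmatory dose–response counterscreen on Bfl-1, used to check hits from a UBC13 polyubiquitin inhibitor campaign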
T2 sequence (Q07440 whole entry): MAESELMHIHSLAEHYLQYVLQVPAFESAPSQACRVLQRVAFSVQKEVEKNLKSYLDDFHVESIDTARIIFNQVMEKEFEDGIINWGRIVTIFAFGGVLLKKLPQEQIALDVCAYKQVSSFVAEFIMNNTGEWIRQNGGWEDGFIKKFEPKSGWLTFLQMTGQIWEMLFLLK

[12] = target: T3, Ubiquitin-conjugating enzyme E2 N (Homo sapiens, UniProt P61088); assay type: functional
T3 sequence (P61088 whole entry): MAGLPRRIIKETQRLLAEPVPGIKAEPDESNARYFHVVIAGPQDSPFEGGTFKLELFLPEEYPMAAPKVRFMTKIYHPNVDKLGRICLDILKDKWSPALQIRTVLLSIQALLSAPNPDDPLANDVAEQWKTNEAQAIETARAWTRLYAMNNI

[13] = inhibitors of SNCA 5'UTR-driven reporter translation, confirmation, H4 neuroglioma cells, luminescence (AID 1988); assay type: functional, cell-based
[14] = Luminescence Cell-Based Dose Response HTS to Identify Inhibitors of 5'UTR Stem-Loop Driven Prion Protein mRNA Translation in H4 Neuroglioblastoma Cells. [Related pubchem assays: 1827 (Project Summary), 1813 (Primary HTS)]; assay type: functional
[15] = target: T4, Calpain-2 catalytic subunit (Sus scrofa, UniProt P43367); assay: pig calpain II inhibitor potency, dose response, biochemical, fluorogenic peptide substrate (AID 1420); assay type: functional
T4 sequence (P43367 whole entry): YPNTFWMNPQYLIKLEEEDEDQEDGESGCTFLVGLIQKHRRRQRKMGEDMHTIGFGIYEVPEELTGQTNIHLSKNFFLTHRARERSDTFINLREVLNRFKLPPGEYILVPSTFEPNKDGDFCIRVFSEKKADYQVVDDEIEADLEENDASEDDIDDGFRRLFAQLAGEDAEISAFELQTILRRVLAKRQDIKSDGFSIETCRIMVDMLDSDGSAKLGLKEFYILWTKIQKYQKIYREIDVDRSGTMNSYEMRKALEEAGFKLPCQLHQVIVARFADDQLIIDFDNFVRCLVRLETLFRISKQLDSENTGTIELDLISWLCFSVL

[16] = inhibitors of firefly luciferase expression or activity, dose response, H4 neuroglioma cells, luminescence (AID 1990); assay type: functional, cell-based
[17] = target: T3, Ubiquitin-conjugating enzyme E2 N; assay type: functional; remark: listed apart in the source
[18] = target: Transitional endoplasmic reticulum ATPase (Homo sapiens, UniProt P55072); assay: p97 ATPase inhibitors, dose response, biochemical (AID 1534)
Chain of Transitional endoplasmic reticulum ATPase (Homo sapiens, UniProt P55072) (P55072 whole entry): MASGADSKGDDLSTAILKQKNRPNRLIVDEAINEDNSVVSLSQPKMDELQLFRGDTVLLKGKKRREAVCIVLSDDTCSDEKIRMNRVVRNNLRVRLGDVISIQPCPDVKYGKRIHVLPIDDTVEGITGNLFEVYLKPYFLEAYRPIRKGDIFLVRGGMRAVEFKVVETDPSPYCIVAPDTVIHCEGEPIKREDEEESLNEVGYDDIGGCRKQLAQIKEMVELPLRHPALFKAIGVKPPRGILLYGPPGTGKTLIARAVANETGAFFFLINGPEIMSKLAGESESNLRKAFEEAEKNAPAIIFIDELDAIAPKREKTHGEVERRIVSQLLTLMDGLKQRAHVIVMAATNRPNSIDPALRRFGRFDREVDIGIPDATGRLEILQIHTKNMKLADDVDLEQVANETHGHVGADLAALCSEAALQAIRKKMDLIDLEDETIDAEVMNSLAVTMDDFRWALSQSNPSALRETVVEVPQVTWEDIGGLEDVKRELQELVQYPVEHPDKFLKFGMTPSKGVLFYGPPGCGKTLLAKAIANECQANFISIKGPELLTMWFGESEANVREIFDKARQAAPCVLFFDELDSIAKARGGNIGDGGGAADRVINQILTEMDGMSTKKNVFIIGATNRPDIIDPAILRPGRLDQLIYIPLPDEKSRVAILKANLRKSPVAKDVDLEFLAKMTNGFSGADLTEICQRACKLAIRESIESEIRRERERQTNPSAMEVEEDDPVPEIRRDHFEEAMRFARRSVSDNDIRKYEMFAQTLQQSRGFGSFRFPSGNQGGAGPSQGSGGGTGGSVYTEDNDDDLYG

[19] = target: Transitional endoplasmic reticulum ATPase (Homo sapiens, UniProt P55072, C522A); assay: C522A mutant p97 ATPase inhibitors, dose response, counter-screen for p97 inhibitor project, biochemical, luminescence (AID 1544)
Chain of Transitional endoplasmic reticulum ATPase (Homo sapiens, UniProt P55072, C522A) (P55072 2-806 C522A limits assumed): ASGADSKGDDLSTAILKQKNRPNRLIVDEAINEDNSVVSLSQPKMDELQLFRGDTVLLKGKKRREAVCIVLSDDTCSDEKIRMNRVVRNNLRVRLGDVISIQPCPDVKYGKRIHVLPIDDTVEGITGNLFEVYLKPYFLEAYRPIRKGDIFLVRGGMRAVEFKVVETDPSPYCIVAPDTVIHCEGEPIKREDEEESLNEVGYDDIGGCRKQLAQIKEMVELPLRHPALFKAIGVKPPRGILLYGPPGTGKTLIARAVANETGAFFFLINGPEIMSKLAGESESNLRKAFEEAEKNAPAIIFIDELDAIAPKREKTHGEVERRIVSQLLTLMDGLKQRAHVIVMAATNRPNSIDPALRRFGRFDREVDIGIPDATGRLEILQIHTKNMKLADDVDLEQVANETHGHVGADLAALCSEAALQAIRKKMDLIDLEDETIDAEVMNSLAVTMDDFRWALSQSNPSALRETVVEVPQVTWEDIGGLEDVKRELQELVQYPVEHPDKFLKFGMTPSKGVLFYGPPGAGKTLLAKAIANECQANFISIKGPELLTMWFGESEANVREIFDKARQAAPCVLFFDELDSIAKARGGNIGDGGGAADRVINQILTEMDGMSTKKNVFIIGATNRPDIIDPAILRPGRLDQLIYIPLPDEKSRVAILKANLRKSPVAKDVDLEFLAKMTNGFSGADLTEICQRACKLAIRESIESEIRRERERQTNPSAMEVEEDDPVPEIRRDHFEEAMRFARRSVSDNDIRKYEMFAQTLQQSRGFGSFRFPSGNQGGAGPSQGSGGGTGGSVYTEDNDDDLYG

[20] = growth suppression of beta-catenin-knockout colon cells, dose response, cell-based, HCT116, human colon tumor (AID 1045); assay type: functional;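 further: HCT116 colon tumor cells with beta catenin knocked out; cells exposed to compound for 60 hours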

Chain of Cytochrome P450 2D6 (P10635 whole entry): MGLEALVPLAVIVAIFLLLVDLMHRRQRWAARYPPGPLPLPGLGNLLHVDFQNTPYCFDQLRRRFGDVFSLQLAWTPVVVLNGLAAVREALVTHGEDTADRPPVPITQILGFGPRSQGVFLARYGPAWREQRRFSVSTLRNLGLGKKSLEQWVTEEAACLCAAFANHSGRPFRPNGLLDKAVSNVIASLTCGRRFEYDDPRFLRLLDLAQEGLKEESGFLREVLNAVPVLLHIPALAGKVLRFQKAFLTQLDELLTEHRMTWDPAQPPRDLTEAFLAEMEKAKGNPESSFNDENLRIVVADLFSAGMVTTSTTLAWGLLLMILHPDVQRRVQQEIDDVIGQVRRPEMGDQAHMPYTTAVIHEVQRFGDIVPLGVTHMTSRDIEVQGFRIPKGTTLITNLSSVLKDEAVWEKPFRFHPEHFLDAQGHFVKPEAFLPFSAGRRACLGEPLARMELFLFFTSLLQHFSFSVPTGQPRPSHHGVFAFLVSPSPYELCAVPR

Structure (SMILES): COc1ccccc1CNc1cc(-c2ccccc2C(F)(F)F)ncn1
- AC50 [1]: 39.8 µM (inconclusive)

Structure (SMILES): CCN1CCN(c2cc(N3CCN(C(=O)c4ccco4)CC3)c3c4c(onc24)-c2ccccc2C3=O)CC1
- IC50 [2]: > 100 µM (active)
- IC50 [3]: 10.7 µM (not active)
- CC50 [4]: > 40 µM (active)
- IC50 [5]: 7.8 µM (active)

Structure (SMILES): CC(=O)N1CCc2cc(Br)cc(S(=O)(=O)NCCN3CCCCC3C)c21 (stereo not given)
- EC50 [6]: > 50 µM (not active)

Structure (SMILES): Clc1ccc(-c2nnc(-c3ccco3)o2)cc1
- AC50 [7]: 24.3 µM (active)
- IC50 [8]: 17.2 µM (active)

Structure (SMILES): N=C(N)N/N=C/c1ccc(OCc2ccc(Cl)cc2Cl)cc1
- EC50 [9]: 4.19 µM (active)
- EC50 [10]: 21 µM (inconclusive)
- IC50 [11]: 13 µM (active)
- IC50 [12]: 7.26 µM (active)
- EC50 [13]: > 120 µM (not active)
- EC50 [14]: > 120 µM (not active)
- IC50 [15]: 7.31 µM (not active)
- EC50 [16]: > 120 µM (not active)
- IC50 [17]: 5.97 µM (active)
- IC50 [18]: > 50 µM (not active)
- IC50 [19]: > 50 µM (not active)
- EC50 [20]: 4.16 µM (active)
